# Reference: patent US20050112066A1, “Complexes of cyclic polyaza chelators with cations of alkaline earth metals for enhanced biological activity” (CONCAT LP, a California Limited Partnership, priority 2003, published 2005)
# Where two headings read alike, the source gives them in different places.
# How the values were obtained:
# [1] = system: Corynebacterium Xerosis; experiment: minimum inhibitory concentration against skin bacteria; assay type: cell-based
# Procedure: This effect is unexpected since the presence of cations other than those of first transition series elements would be expected to inhibit the rate and extent of complexation of the first transition series elements by both the cyclic and linear chelators, albeit to differing degrees.
# Two chelators were compared in terms of their minimum inhibitory concentrations (MIC) against the common skin bacteria Corynebacterium Xerosis in media containing either 3.7 mg/L or 137 mg/L of Ca(II). The two chelators were N,N′,N″-tri(dihydroxyphosphoryl methyl)-1,4,7-triazacyclononane (within the scope of the present invention) and diethylene triamine pentaacetic acid (DTPA) (outside the scope of the present invention). The MIC for the triazacyclononane was 8 μg/mL in medium containing 3.7 mg/L of Ca(II), and 5 μg/mL in medium containing 137 mg/L of Ca(II).
# [2] = system: Laboratory mice; experiment: acute in vivo toxicity, single intravenous dose to mice; settings: 3.0 mM/kg single intravenous dose
# Procedure: This example illustrates the low in vivo toxicity of a representative example of the chelators of this invention upon administration to mice.
# Laboratory mice were treated by the intravenous administration of 3.0 mM/kg intravenously of the sodium salt of N,N′,N″-tris(dihydroxyphosphoryl-methyl)-1,4,7-triazacyclononane as a single intravenous dose. […] This in vivo LD50 toxicity dose results in an instantaneous in vivo concentration which is orders of magnitude greater than the dose of this agent which inhibits mammalian cell replication in vitro (0.009 mM/L).
# [3] = system: mammalian cell replication; experiment: inhibition of mammalian cell replication in vitro; assay type: cell-based
# [4] = system: HFF (human foreskin fibroblasts); experiment: toxicity toward nonproliferating mammalian cells in vitro; assay type: cell-based; settings: 0.3 mM; mature, nonreplicating HFF cultures in maintenance media; five-day period of observation
# Procedure: This example illustrates the relatively low toxicity of a representative example of the chelators of this invention toward nonproliferating mammalian cells in vitro.
# To mature, nonreplicating cultures of HFF (human foreskin fibroblasts) kept in maintenance media was added N,N′,N″-tris(dihydroxyphosphorylmethyl)-1,4,7-triazacyclononane at a concentration of 0.3 mM. No effect on the resting cells was observed over a five-day period of observation.
# [5] = system: Sprague Dawley rats; experiment: subacute toxicity, repeated intravenous doses to rats; assay type: in vivo; settings: 0.05 millimoles per kg i.v. on 10 days
# Text: Ten male Sprague Dawley rats 29 days old and weighing between 73.4 and 87.8 grams at the beginning of the experiment were randomized, employing the block stratification method, into two groups consisting of five rats each. On each of days 1, 2, 3, 6, 7, 8, 9, 10,13 and 14 of the experiment one set of rats received an intravenous dose of N,N′,N″-tri(dihydroxyphosphoryl methyl)-1,4,7-triazacyclononane equal to 0.05 millimoles per kg of initial body weight (experimental group) while the other group received an equivalent volume of normal saline solution. The weights of the animals were recorded three times per week and the animals were sacrificed on the 28th day, major organs removed and weighed and tissues removed for microscopic examination.
# [6] = room temperature; cited from earlier work
compound,measurement,setting,value
"O=C(O)CN(CCN(CC(=O)O)CC(=O)O)CCN(CC(=O)O)CC(=O)O [DTPA, diethylene triamine pentaacetic acid, reference compound]",MIC,[1]; medium containing 3.7 mg/L of Ca(II),36 µg/mL
same,MIC,[1]; medium containing 137 mg/L of Ca(II),320 µg/mL
"O=P([O-])([O-])CN1CCN(CP(=O)(O)O)CCN(CP(=O)(O)O)CC1.[Na+].[Na+] [sodium salt of N,N′,N″-tris(dihydroxyphosphoryl-methyl)-1,4,7-triazacyclononane]",mice surviving for over 14 days,[2],Over 50%
same,dose which inhibits mammalian cell replication in vitro,[3],0.009 mM/L
"O=P(O)(O)CN1CCN(CP(=O)(O)O)CCN(CP(=O)(O)O)CC1 [N,N′,N″-Tris-(dihydroxyphosphorylmethyl)-1,4,7-triazacyclononane]",effect on the resting cells,[4],No effect
same,differences between tissues upon microscopic examination of major organs vs control group,[5]; necropsy on the 28th day,no differences
same,difference in weight or rate of weight gain vs control group,[5]; period of injections and two-week post-injection period,no statistically significant difference
same,differences in weights of major organs vs control group,[5]; sacrificed on the 28th day,no differences
same,MIC,"[1]; Corynebacterium xerosis, medium containing 3.7 mg/L of Ca(II), read-out: MIC",8 µg/mL
same,MIC,"[1]; Corynebacterium xerosis, medium containing 137 mg/L of Ca(II), read-out: MIC",5 µg/mL
same,time to achieve equilibrium with the cations,[6],many months
